Values quoted from earlier work as cited in patent US6680306B2, “Method for enhancing the effectiveness of cancer therapies” (GlycoGenesys, Inc., priority 2001, dated 2004).

Columns and labels:
[1] = tested on: galectin-3 transfected BT549 cells; details: galectin-3 transfected BT549 cells treated with genistein
BT549 cells = details: BT549 human breast epithelial cell line that does not express detectable levels of galectin-3

Structure (SMILES): O=c1c(-c2ccc(O)cc2)coc2cc(O)cc(O)c12 [genistein]
- cell cycle arrest / apoptosis induction [1]: cell cycle arrest at the G(2)/M phase takes place without apoptosis induction
- apoptosis induction (BT549 cells): effectively induces apoptosis, without detectable cell cycle arrest
